Experimental data taken from US7022648B2, “Plant seeds treated with N,N′-substituted ureas” (Stoller Enterprises, Inc., priority 1996, dated 2006).
Values joined by “and” are separate entries in the source; they are usually repeats but may differ in a detail not shown here. Equal entries are not always repeated.

Tests used:
Assay type in all cases: in vivo
Peanuts = experiment: Greenhouse pot test, foliar treatment 0.01 M diformylurea; conditions: foliar treated, three leaf stage, 30 days
Protocol: (§1) Based upon the foregoing preliminary work, additional experiments to investigate the effect of diformylurea on other plant species was undertaken. These experiments were also designed to compare the effect of treating seeds as described above with foliar treatment. Wheat, corn and peanuts were selected for the next phase of this work. Diformylurea was prepared by reacting formic acid and urea at a molar ratio of 2:1 as described above. An aqueous solution containing diformylurea at a concentration of 0.01 M was prepared. For the seed treatment portion of the experiments, the seeds to be treated were soaked in the foregoing solution for about 24 hours before planting. The control seeds were again soaked in water for the same time. Both control and treated seeds were planted in 1 gallon greenhouse pots. Five seeds were planted in each pot. Each pot was thinned to two plants after germination. For the foliar treatment portion of the experiment, plants grown from untreated seeds were sprayed with a solution containing 0.01 M. diformylurea at the three leaf stage. All plants were watered and fertilized as required. Thirty days after planting, the plants were harvested and the roots and shoots examined. The mass of both the roots and shoots and the total mass of the plant in each pot were determined.

Wheat = experiment: as above; conditions: foliar treated, three leaf stage, 30 days
Protocol: as §1

Corn [1] = experiment: as above; conditions: foliar treated, three leaf stage, 30 days
Protocol: as §1

Soybean = experiment: Preliminary greenhouse pot test, seeds soaked in diformylurea solution, root and shoot mass; conditions: seed soak 24 h, 30 days
Protocol: (§2) In a preliminary experiment to determine the agricultural value of the N,N′-diformylurea prepared above, a concentrate was prepared by mixing 200 grams diformylurea and 200 grams formic acid, adjusting the ph to about 5.5 by the addition of potassium hydroxide and adding sufficient water to make 1 liter. […] Low, medium and high dilution aqueous solutions were prepared by diluting, respectively, 0.8 grams, 8.0 grams and 40.0 grams of the concentrate per liter of final solution. […] The foregoing solutions were used to coat corn, soybean, cotton and rice seeds prior to planting. Coating was achieved by soaking the seeds in the foregoing solutions for about 24 hours. Sufficient solution was used to keep the seeds immersed. Control seeds were soaked in water for the same time. Untreated or control seeds, together with seeds treated by the low, medium and high dilution solutions, were planted in 1 gallon greenhouse pots. Six pots were used for each dilution or control with five seeds planted per pot. The plants were thinned to two plants per pot after emergence. The plants were watered and fertilized as required. After 30 days the plants were harvested and the roots and shoots examined. The roots and shoots were weighed separately and the root/shoot ratio determined. The treated plants were generally characterized by both greater root mass and shoot mass when compared to the controls. The root/shoot ratio for most of the treated plants was greater than that for the controls.

Rice [2] = experiment: as above; conditions: seed soak 24 h, 30 days
Protocol: as §2

Cotton = experiment: as above; conditions: seed soak 24 h, 30 days
Protocol: as §2

Corn [3] = experiment: as above; conditions: seed soak 24 h, 30 days
Protocol: as §2

Rice [4] = experiment: Single application to rice at tillering, yield; conditions: 50 grams per acre at tillering
From the text: The reaction products of the present invention, specifically N,N′-diformylurea, have been used to enhance the growth of plants. […] For example, a single application to rice at the rate of 50 grams per acre at tillering has produced a 25 percent increase in yield.

O=CNC(=O)NC=O [diformylurea, N,N′-diformylurea]
Percent Change v. Control, Roots (Peanuts): 92% | Percent Change v. Control, Shoots (Peanuts): 108% | Percent Change v. Control, Total (Peanuts): 100% | Root/Shoot Ratio (Peanuts): 1.02 | Roots (gm), Average (Peanuts; average of samples): 32.74 gm | Shoots (gm), Average (Peanuts; average of samples): 32.15 gm | Total (gm), Average (Peanuts; average of samples): 64.89 gm | Roots (gm) (Peanuts; single sample (pot)): 27.67 gm and 35.04 gm and 37.38 gm and 31.10 gm and 31.69 gm and 33.55 gm | Shoots (gm) (Peanuts; single sample (pot)): 28.38 gm and 30.34 gm and 33.84 gm and 32.35 gm and 36.17 gm and 31.82 gm | Total (gm) (Peanuts; single sample (pot)): 56.05 gm and 65.38 gm and 71.22 gm and 63.45 gm and 67.86 gm and 65.37 gm | Percent Change v. Control, Roots (Wheat): 14% | Percent Change v. Control, Shoots (Wheat): 108% | Percent Change v. Control, Total (Wheat): 26% | Root/Shoot Ratio (Wheat): 4.06 | Roots (gm), Average (Wheat; average of samples): 23.93 gm | Shoots (gm), Average (Wheat; average of samples): 5.89 gm | Total (gm), Average (Wheat; average of samples): 29.83 gm | Shoots (gm) (Wheat; single sample (pot)): 7.48 gm and 7.53 gm and 4.44 gm and 4.62 gm and 4.00 gm and 7.28 gm | Percent Change v. Control, Roots (Corn [1]): 11% | Percent Change v. Control, Shoots (Corn [1]): 103% | Percent Change v. Control, Total (Corn [1]): 46% | Root/Shoot Ratio (Corn [1]): 0.90 | Roots (gm), Average (Corn [1]; average of samples): 51.38 gm | Shoots (gm), Average (Corn [1]; average of samples): 57.31 gm | Total (gm), Average (Corn [1]; average of samples): 108.69 gm | Roots (gm) (Corn [1]; single sample (pot)): 42.40 gm and 48.44 gm and 52.48 gm and 56.22 gm and 42.18 gm and 66.57 gm | Shoots (gm) (Corn [1]; single sample (pot)): 61.80 gm and 46.17 gm and 50.59 gm and 61.12 gm and 67.57 gm and 56.61 gm | Total (gm) (Corn [1]; single sample (pot)): 104.20 gm and 84.61 gm and 103.07 gm and 117.34 gm and 109.75 gm and 123.18 gm | Root/Shoot Ratio (Soybean; Low dilution, 0.0013 M): 0.93 | Roots (gm) (Soybean; Low dilution, 0.0013 M): 4.60 gm | Shoots (gm) (Soybean; Low dilution, 0.0013 M): 4.90 gm | Total (gm) (Soybean; Low dilution, 0.0013 M): 9.50 gm | Root/Shoot Ratio (Soybean; Medium dilution, 0.013 M): 1.20 | Roots (gm) (Soybean; Medium dilution, 0.013 M): 4.90 gm | Shoots (gm) (Soybean; Medium dilution, 0.013 M): 4.10 gm | Total (gm) (Soybean; Medium dilution, 0.013 M): 9.00 gm | crown roots on plants grown from treated seeds (Rice [2]): crown roots were noticed | Root/Shoot Ratio (Rice [2]; High dilution, 0.068 M): 2.10 | Roots (gm) (Rice [2]; High dilution, 0.068 M): 0.82 gm | Shoots (gm) (Rice [2]; High dilution, 0.068 M): 0.39 gm | Total (gm) (Rice [2]; High dilution, 0.068 M): 1.21 gm | Root/Shoot Ratio (Rice [2]; Low dilution, 0.0013 M): 1.78 | Roots (gm) (Rice [2]; Low dilution, 0.0013 M): 0.61 gm | Shoots (gm) (Rice [2]; Low dilution, 0.0013 M): 0.34 gm | Total (gm) (Rice [2]; Low dilution, 0.0013 M): 0.95 gm | Root/Shoot Ratio (Rice [2]; Medium dilution, 0.013 M): 1.86 | Roots (gm) (Rice [2]; Medium dilution, 0.013 M): 3.07 gm | Shoots (gm) (Rice [2]; Medium dilution, 0.013 M): 1.84 gm | Total (gm) (Rice [2]; Medium dilution, 0.013 M): 4.91 gm | Root/Shoot Ratio (Cotton; High dilution, 0.068 M): 0.73 | Roots (gm) (Cotton; High dilution, 0.068 M): 5.07 gm | Shoots (gm) (Cotton; High dilution, 0.068 M): 6.90 gm | Total (gm) (Cotton; High dilution, 0.068 M): 11.97 gm | Root/Shoot Ratio (Cotton; Low dilution, 0.0013 M): 1.46 | Roots (gm) (Cotton; Low dilution, 0.0013 M): 7.85 gm | Shoots (gm) (Cotton; Low dilution, 0.0013 M): 5.38 gm | Total (gm) (Cotton; Low dilution, 0.0013 M): 13.23 gm | Root/Shoot Ratio (Cotton; Medium dilution, 0.013 M): 1.08 | Roots (gm) (Cotton; Medium dilution, 0.013 M): 4.50 gm | Shoots (gm) (Cotton; Medium dilution, 0.013 M): 5.25 gm | Total (gm) (Cotton; Medium dilution, 0.013 M): 9.75 gm | crown roots on plants grown from treated seeds (Corn [3]): crown roots were noticed | Root/Shoot Ratio (Corn [3]; High dilution, 0.068 M): 1.09 | Roots (gm) (Corn [3]; High dilution, 0.068 M): 9.60 gm | Shoots (gm) (Corn [3]; High dilution, 0.068 M): 8.80 gm | Total (gm) (Corn [3]; High dilution, 0.068 M): 18.40 gm | Root/Shoot Ratio (Corn [3]; Low dilution, 0.0013 M): 1.04 | Roots (gm) (Corn [3]; Low dilution, 0.0013 M): 9.80 gm | Shoots (gm) (Corn [3]; Low dilution, 0.0013 M): 9.40 gm | Total (gm) (Corn [3]; Low dilution, 0.0013 M): 19.20 gm | Root/Shoot Ratio (Corn [3]; Medium dilution, 0.013 M): 1.08 | Roots (gm) (Corn [3]; Medium dilution, 0.013 M): 10.40 gm | Shoots (gm) (Corn [3]; Medium dilution, 0.013 M): 9.60 gm | Total (gm) (Corn [3]; Medium dilution, 0.013 M): 20.00 gm | increase in yield (Rice [4]): 25%
